Measured values reported in paper PMC12535076, “Neurotherapeutic effects of Vutiglabridin as a Paraoxonase-2 modulator in preclinical models of Parkinson’s disease” (Molecular Neurodegeneration, 2025).

Experiments:
[1] = test system: AAV-A53T injected C57BL/6J mice; test: AAV-α-syn A53T-injected mouse model; assay type: in vivo
Description: Male C57BL/6J mice (7 week-age-old) were used for inducing the α-syn A53T model and treating Vuti and vehicle. All mice were maintained in a specific pathogen-free animal facility under a 12:12-h light-dark cycle (lights on at 8:00 AM) at a temperature of 21℃ and allowed ad libitum access to food and water. All experiments and animal care were performed in accordance with the guidelines of the Institutional Animal Care and Use Committee (IACUC) of IBS, Daejeon, South Korea (IBS-IBC-2022-12). Mice were anesthetized under isoflurane anesthesia (induction: 3%–4%, maintenance: 1.5%–2%) and placed into stereotaxic (RWD, China). For establishing the α-syn A53T mouse model, 2µL of AAV-CMV-A53T-Asyn or AAV-CMV-EGFP (5 × 10^12 genomic copies/mL, packaged by the IBS virus facility) was injected into the SNpc (AP − 3.2 mm, ML ± 1.3 mm, DV − 4.0 mm relative to the bregma; 0.2µL/min) bilaterally. Oral administration of 50 mg/kg Vuti (Vuti 50) or the vehicle (Veh) was started 5 weeks after the virus injection, once a day for 12 weeks. Mice were used for behavior tests and immunostaining after completing drug treatment. Vertical grid test was performed as described before. For 5 days, mice were allowed for habituation in the test room. Prior to the trial session, the mice were acclimated to the vertical grid for 2 days. For the experiment, individual mice were gently placed 3 cm from the top, facing upward, and allowed to turn around and climb down. […] Starting from the fourth week after the injection, trials are conducted at two-week intervals.
Mice were deeply anaesthetized with isoflurane and perfused transcranial with 0.9% saline ice-cold 4% paraformaldehyde (PFA). Excised brains were postfixed at 4 °C overnight and transferred to 30% sucrose for 48 h for dehydration. Coronal sections of 30 μm thickness (20 μm thickness for super-resolution imaging) were prepared in a cryostat and stored in a storage solution at 4 °C. Brain tissues were washed in PBS and incubated in a blocking solution (0.3% Triton X-100, 2% Donkey Serum, 2% Goat Serum in 0.1 M PBS). Primary antibodies were added to the blocking solution at desired dilution and the sections were incubated in a shaker at 4 °C overnight. Primary antibodies used for immunostaining were anti-TH (rabbit, 1:200, Pel-freez, P40101-150), GFAP (chicken, 1:500, Millipore, AB5541), Iba-1 (rabbit, 1:500, Wako, 019-19741), DDC (rabbit, 1:200, abCam, ab3905), GABA (guinea pig, 1:200, Millipore, AB175), anti-PON2 (rabbit, 1:200, abCam, ab183710). Unbound antibodies were washed off using PBS, followed by corresponding secondary antibody incubation (in blocking solution) for 1–2 h at room temperature. Unbound antibodies were washed with PBS and DAPI was added to PBS (1:1500 dilution). Sections were mounted with fluorescent mounting medium (Dako) and dried. A series of fluorescent images were obtained using Zeiss LSM900 confocal microscope. Super-resolution image for PON2 signals imaged by Zeiss Lattice SIM (Structure-illumination microscope) and all images were processed using ImageJ (Fiji) software.

[2] = target: T1, P-glycoprotein (P-gp, MDR1) (Homo sapiens, UniProt P08183); test: P-glycoprotein (P-gp) efflux assay in cell monolayers; assay type: in vitro ADME; conditions: MDCKII, MDCKII-hMDR1 and Caco-2 monolayers, with and without P-gp inhibitor GF120918
T1 construct: expressed in transfected cells; host or cells: MDCKII-hMDR1 (canine kidney cells carrying human MDR1); also parental MDCKII and Caco-2 (endogenous human P-gp)
T1 sequence (P08183 whole entry): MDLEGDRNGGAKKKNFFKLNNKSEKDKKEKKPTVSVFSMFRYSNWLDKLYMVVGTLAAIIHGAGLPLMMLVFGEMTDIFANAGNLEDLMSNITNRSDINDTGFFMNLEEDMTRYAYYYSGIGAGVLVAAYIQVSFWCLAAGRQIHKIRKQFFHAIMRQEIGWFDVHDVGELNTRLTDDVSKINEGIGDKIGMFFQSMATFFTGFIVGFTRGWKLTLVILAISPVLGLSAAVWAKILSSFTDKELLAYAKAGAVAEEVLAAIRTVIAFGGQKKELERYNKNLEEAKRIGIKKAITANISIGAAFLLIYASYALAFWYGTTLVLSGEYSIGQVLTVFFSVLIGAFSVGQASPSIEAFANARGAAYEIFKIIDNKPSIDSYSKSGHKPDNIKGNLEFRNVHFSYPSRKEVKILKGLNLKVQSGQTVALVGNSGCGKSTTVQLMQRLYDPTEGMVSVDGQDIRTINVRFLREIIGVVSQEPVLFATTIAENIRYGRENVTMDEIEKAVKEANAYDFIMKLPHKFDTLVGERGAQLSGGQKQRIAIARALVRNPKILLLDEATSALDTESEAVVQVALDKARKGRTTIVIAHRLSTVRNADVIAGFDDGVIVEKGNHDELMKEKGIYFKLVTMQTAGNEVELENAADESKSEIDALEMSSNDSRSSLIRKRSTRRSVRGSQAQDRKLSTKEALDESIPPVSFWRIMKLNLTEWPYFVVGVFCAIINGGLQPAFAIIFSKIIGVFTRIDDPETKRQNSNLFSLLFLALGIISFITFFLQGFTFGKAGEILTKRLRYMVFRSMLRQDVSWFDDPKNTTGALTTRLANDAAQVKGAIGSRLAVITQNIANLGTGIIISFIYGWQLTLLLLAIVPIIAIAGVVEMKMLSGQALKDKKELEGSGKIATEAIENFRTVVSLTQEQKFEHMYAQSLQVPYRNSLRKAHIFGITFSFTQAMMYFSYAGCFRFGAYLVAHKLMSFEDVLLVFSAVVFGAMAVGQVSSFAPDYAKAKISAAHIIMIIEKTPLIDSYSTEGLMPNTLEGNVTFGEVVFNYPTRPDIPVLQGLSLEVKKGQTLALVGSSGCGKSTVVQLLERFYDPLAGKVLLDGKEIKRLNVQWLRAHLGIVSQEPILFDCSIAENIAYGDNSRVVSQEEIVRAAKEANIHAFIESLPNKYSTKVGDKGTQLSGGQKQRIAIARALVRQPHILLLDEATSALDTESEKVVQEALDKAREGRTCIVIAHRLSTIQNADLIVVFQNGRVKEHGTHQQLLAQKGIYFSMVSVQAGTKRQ
Description: P-gp efflux ratio was determined in MDCKII-hMDR1, MDCKII [61], and Caco-2 cell monolayer via LC-MS/MS analysis, in accordance with the standard FDA guideline on transporter-mediated drug interactions. 10 µM of GF120918 was used as P-gp inhibitor. The apical (A-to-B) and basolateral (B-to-A) permeability coefficient (Papp) were measured to yield the efflux ratio.
(a) Measurement of Vuti concentration in octanol and aqueous phase (pH7.4 phosphate buffer) via HPLC. The mean value of three replicates was used, and the limit of quantification (LOQ) value was used to calculate Log D as a log of concentration in the octanol phase divided by the concentration in the aqueous phase. (b) Efflux ratios (Papp(B→A)/Papp(A→B)) of Vuti in three types of cell monolayers, with or without P-glycoprotein (P-gp) inhibitor GF120918. (c) Schematic of 14C-labeling of Vuti. Attachment to the ethoxy group is warranted because it is robustly maintained throughout metabolism. (d) Plasma radioactivity concentration in Sprague-Dawley rats after a single administration of 10 mg/kg of 14C-Vuti (n = 3).

For CCOc1ccc(C2COc3c(ccc4c3CCC(C)(C)O4)C2)c(O)c1 (stereo not drawn) [Vuti, Vutiglabridin], the “GFAP and Iba1 levels (astrocytes and microglia)” value ([1]; A53T mice, Vuti 50 mg/kg) was “normalization”, the “amount of GABA in astrocytes” value ([1]; A53T mice, Vuti 50 mg/kg) was “decrease” and the “intracellular α-syn levels” value ([1]; A53T mice, Vuti 50 mg/kg) was “decreased”. The “step failure in the vertical grid test” value ([1]; A53T mice, Vuti 50 mg/kg oral from week 5, within 5 to 7 weeks of administration (weeks 10-12)) was “statistically significant improvements”, the “DDC-positive cells in SNpc” value ([1]; A53T mice, Vuti 50 mg/kg, 12 weeks after AAV-A53T injection) was “significantly increased” and the “TH-positive cells in SNpc” value ([1]; A53T mice, Vuti 50 mg/kg, 12 weeks after AAV-A53T injection, vs vehicle) was “significant increase”. The PON2 protein level ([1]; A53T mouse model and WT + Vuti group, IHC and Western blot) was “remained unchanged”, the “TH+/DDC+ ratio” value ([1]; α-syn A53T overexpressed PD model) was “doubled” and the “efflux ratio (Papp(B→A)/Papp(A→B))” value [2] was “low efflux ratio”.
